49 compounds from PubChem BioAssay AID179 (DTP/NCI, 2004) can be followed below.

This assay has as its system CEM cells HIV-1 protection, formazan growth assay. In words: NCI AIDS Antiviral Assay. The settings on record: for pIC50: measured here: growth of uninfected CEM cells. The method in brief:
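Steps: treat uninfected and HIV-1-infected human CEM cells at five drug levels; quantify growth by soluble formazan; retest any compound reaching 50% protection; classify actives from the retest.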

pEC50, pIC50: −log10 of the molar value. Activity calls are given as the source filed them.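 Rule for the calls: active = compounds giving half or more protection of infected cells from virus-caused growth loss, again on retest; inactive = the rest.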 Where a SMILES comes first, the peptide text is derived from it. [ ]: non-standard residue; d: D form. pGlu = O=C1CC[CH](C(=O)O)N1

In the case of `O/N=C/c1ccc(O)c(O)c1`, the pEC50 was less than 2.79 and the pIC50 is 4.06.
For `CC(NC(=O)C1CCC(=O)N1)C(=O)N1CCCC1C(N)=O` (stereo not drawn) ([pGlu]-Ala-Pro-NH2; configuration not given here) the same measures were less than 3.70 and less than 3.70.
Take `[Cl-].[Rh+3].c1ccc(-c2ccnc3c2ccc2c(-c4ccccc4)ccnc23)cc1.c1ccc(-c2ccnc3c2ccc2c(-c4ccccc4)ccnc23)cc1.c1ccc(-c2ccnc3c2ccc2c(-c4ccccc4)ccnc23)cc1`: the pEC50 is less than 4.96 and the pIC50 was 5.15.
On to `O=[N+]([O-])C1(CO)COC(CCc2ccccc2)OC1` (stereo not given), for which the result was inactive.
For `O=C(/C=C(\O)c1ccccc1)C(=O)NNc1ccc([N+](=O)[O-])cc1[N+](=O)[O-]`, the pEC50 is less than 3.70 and the negative-log IC50 (pIC50) was 4.22.
For `CN(C)Cc1cc(C(=O)/C=C/c2c(Cl)cccc2Cl)cc(CN(C)C)c1O` the same measures were less than 3.70 and 5.57.
As for `O=C1Nc2nc3ccccc3n2N=C2CCCC12` (stereo not given), the outcome was inactive.
`O=C(c1cccc(C(=O)c2ccc3c4c(cccc24)C(=O)N(c2ccccc2)C3=O)c1)c1ccc2c3c(cccc13)C(=O)N(c1ccccc1)C2=O`: the pEC50 is less than 3.70 and the negative logarithm of the IC50 (pIC50) was less than 3.70.
With `CCOC(CN(C)C(=O)Nc1cccc2ccccc12)OCC`, the pEC50 was less than 3.70 and the negative-log IC50 (pIC50) was 3.75.
Turning to `CN(C)c1ccc(/C=C(\NC(=O)c2ccccc2)C(=O)Nc2ccccc2C(=O)O)cc1`, the pEC50 was less than 4.00 and the pIC50 was less than 4.00.
As to `O=C(O)C1(Cc2ccccc2)Cc2cc3c(cc2C1)CCC3`, the pEC50 was less than 3.70 and the pIC50 is 4.03.
Consider `CC1(c2nc3ccccc3[nH]2)CCC(CO)C(C)(C)O1` (stereo not given), for which the pEC50 is less than 3.70 and the negative logarithm of the IC50 (pIC50) was less than 3.70.
Regarding `O=C1CC(c2ccccc2)=NO1`, the pEC50 was less than 3.70 and the pIC50 was less than 3.70.
Consider `O=C(c1ccccc1)C1(C(=O)c2ccccc2)/C(=N\O)C2CCC1C2` (stereo not given), for which the pEC50 is less than 4.27 and the pIC50 is 4.68.
On the same counts, the results for `O=C(Nc1c[nH]c(=O)[nH]c1=O)c1ccc(S(=O)(=O)F)cc1` are less than 3.82 and 4.07.
On the same counts, the results for `Nc1ccc2c(c1)C1Oc3ccccc3CC1CO2` (stereo not given) are less than 3.70 and 3.96.
As for `Cc1cc(C)c2c(n1)sc1c(=O)n(N)c(C)nc12`, the outcome was inactive.
On the same count and under the same terms, the value for `C=C(C)C1=NC(C)(C)CC1=C(C)C` was “inactive”; that for `N#CC1(Cc2ccccc2Cl)c2ccccc2C=CN1C(=O)c1ccccc1` (stereo not given) was “inactive”.
`Fc1ccc(NC(=S)N/N=C\c2c(Cl)cccc2Cl)cc1`: the pEC50 was less than 3.56 and the pIC50 is less than 3.56.
For the compound `CCOC1CCC2C(CCC(/C=C/c3ccc(O)c4ncccc34)N2C)C1` (stereo not given), the pEC50 is less than 4.55 and the pIC50 was 5.31.
For `Cn1c2cc(Cl)ccc2c2ccc3c(c21)C(=O)C=CC3=O` the same measures were less than 3.70 and 5.38.
For `c1cnc2c3cnc4sccc4c3nn2c1` the same measures were less than 4.13 and less than 4.13.
On the same counts, the results for `O=C1C=C(c2ccccc2)C2(c3ccccc3)C1C1C(c3ccccc3)=C(c3ccccc3)C2C12SCCS2` (stereo not given) are less than 3.70 and 5.47.
As for `CCC(C)C(NC(=O)C(CCCN=C(N)N)NC(=O)C(CC(=O)O)NC(=O)C(Cc1cnc[nH]1)NC(=O)C(N)CC(C)C)C(=O)NC(C(=O)NC(CC(C)C)C(=O)NC(C(=O)NC(Cc1cnc[nH]1)C(=O)O)C(C)O)C(C)CC` (stereo not given) (H-LHDRIILTH-OH; configuration not given here), the pEC50 is less than 4.35 and the pIC50 is less than 4.35.
`CN1CCN(C2=Nc3ccccc3Cc3ccccc32)CC1`: the pEC50 is less than 3.77 and the pIC50 is 4.19.
`CCCSc1nc(COC(=O)NC)c(COC(=O)NC)n1C`: the pEC50 was less than 3.70 and the pIC50 is 4.08.
Take `CCOC(=O)CNC(=O)c1cccc2c(Nc3ccc(S(=O)(=O)Nc4cc(C)on4)cc3)c3ccccc3nc12`: the pEC50 is less than 3.70 and the pIC50 is 4.91.
Regarding `COC(=O)C12C34C=CC5(CCC6(C=CC1(CC3)O6)C52C(=O)OC)O4` (stereo not given), the outcome was inactive.
For the compound `CN(CCCNC(=O)c1cc(-c2ccccc2)nc2ccccc12)CCCNC(=O)c1cc(-c2ccccc2)nc2ccccc12`, the pEC50 was less than 4.70 and the pIC50 is 5.47.
`COc1ccc(N(CC(=O)O)S(=O)(=O)c2ccccc2)cc1`: the outcome was inactive.
The same measure, in the same setting: the value for `COc1ccc(C(C2=C(C)C(=O)c3ccccc3C2=O)c2ccc(C(C)C)cc(=O)c2O)cc1` (stereo not given) was “inactive”.
Regarding `Cn1cnc2c1c(=O)n(CCNCCO)c(=O)n2C`, the pEC50 was less than 3.70 and the pIC50 was less than 3.70.
On to `CC(C)OC(=O)[C@H]1ON2O[C@H](O[C@@H]3CCCC[C@H]3c3ccccc3)C([Si](C)(C)c3ccccc3)[C@H]3OC(=O)[C@@H]1C32` (stereo not given in full), for which the pEC50 is less than 3.70 and the negative-log IC50 (pIC50) is 3.80.
For `NC(=O)CCNC(=O)c1ccccc1SC(=O)NCCBr` the same measures were 5.86 and 5.00.
As to `CC(=O)OCc1nc2ncnc(N)c2[nH]1`, the pEC50 is less than 3.20 and the pIC50 was less than 3.20.
Regarding `Cc1c(C)c2cc3c(cc2oc1=O)OCC3`, the pEC50 is less than 4.08 and the pIC50 was 4.26.
On the same counts, the results for `CC(NNC(=O)c1ccncc1)c1ccc(Cl)c(Cl)c1` (stereo not given) are less than 3.70 and 3.97.
On the same counts, the results for `COC(=O)C(C(=O)C(=O)Nc1nc(=S)[nH][nH]1)c1csc(-n2nc(-c3ccccc3)cc2-c2ccccc2)n1` (stereo not given) are less than 4.16 and less than 4.16.
Take `Cc1ccccc1-n1c(=S)n(-c2ccc(Cl)cc2)c2nc3ccccc3nc1/c2=N/Nc1cc(Cl)ccc1Cl`: the pEC50 is less than 3.70 and the pIC50 is 3.76.
In the case of `Nc1nc(Cl)c(/C=N\O)c(NCC2(CO)CC(=O)C2)n1`, the pEC50 was less than 3.70 and the pIC50 was 4.77.
On to `COc1ccc(/C=C2/C(=O)NC3SC=C(c4cccc([N+](=O)[O-])c4)N23)cc1` (stereo not given), for which the pEC50 was less than 3.70 and the pIC50 was 4.08.
For `CC1(C)COC(c2ccc(C(=O)c3ccc(Cl)cc3)cc2)=N1` the same measures were less than 3.70 and 4.09.
Take `N#Cc1cc(Sc2ccc(N)c(C#N)c2)ccc1N`: the pEC50 is less than 3.70 and the pIC50 is 4.96.
On the same counts, the results for `O=C1C2=C(SCCS2)C(=O)c2c(Sc3ccc(Cl)cc3)c(Sc3ccc(Cl)cc3)c(Sc3ccc(Cl)cc3)c(Sc3ccc(Cl)cc3)c21` are less than 3.82 and less than 3.82.
On the same counts, the results for `Cc1cc(C)n(-c2nc(-c3ccccc3)cs2)n1` are less than 3.70 and 4.14.
As to `Cc1ccc(Nc2ccc3c4c(cc(=O)n3C)-c3ccccc3C(=O)c24)c(S(=O)(=O)O)c1`, the pEC50 was less than 3.76 and the pIC50 was less than 3.76.
`O=c1oc2ccccc2c(-c2ccc(O)cc2)c1Oc1ccccc1`: the pEC50 is less than 3.70 and the pIC50 was 4.70.
On to `CCOc1ccc(N=Nc2ccc3oc(=O)c(/C(C)=N/NC(=O)CC(=O)Nc4cccc(OC)c4)cc3c2)cc1`, for which the pEC50 was less than 4.88 and the pIC50 was less than 4.88.
